Measurements published in patent US20230181496A1, “USE OF NOREPINEPHRINE OR BETA-ADRENERGIC RECEPTOR INHIBITOR IN PREPARATION OF MEDICAMENT FOR NERVE INJURY REPAIR IN DIABETES” (Qingdao Eye Hospital of Shandong First Medical University …, priority 2021, published 2023).
Entries after “also recorded” stand apart in the source; their conditions may differ.

Assays:
[1] = tested on: diabetic mice; test: Corneal nerve regeneration (βIII-tubulin staining, confocal microscope); type: in vivo
Source text: Animals were STZ-induced type I diabetic mice (constructedas describedin the prior art: Lingling, Yang, Guohu, Di, Xia, & Qi, et al. (2014). Substance P promotes diabetic corneal epithelial wound healing through molecular mechanisms mediated via the neurokinin-1 receptor. Diabetes, 63(12), 4262-4274.) and their normal controls. Laboratory mice had no corneal defect, neovascularization, or conjunctival injury.
Cornea of diabetic mice and their control mice were subjected to βIII-tubulin staining (as described in the following reference: Wang X, Li W, Zhou Q, et al. MANF Promotes Diabetic Corneal Epithelial Wound Healing and Nerve Regeneration by Attenuating Hyperglycemia-Induced Endoplasmic Reticulum Stress. 2020.), and nerve regeneration was observed under a confocal microscope.
The cornea of diabetic mice and their control mice were stained with βIII-tubulin, and nerve regeneration was observed under a confocal microscope.

[2] = tested on: Trigeminal ganglion neurons; test: Growth of trigeminal ganglion neurons cultured with TKE2 culture supernatants (βIII-Tubulin staining, Neuron J length); type: cell-based, mice; settings: supernatant added to neurons for 24 h
Procedure: Trigeminal ganglion neurons isolated from normal mice were mixed with a mixture of 40 U/mL papain, 3 mg/mL collagenase, and 4.7 mg/mL dispase II, digested and subjected to gradient centrifugation with percoll (upper layer: 12.5% percoll; lower layer 28% percoll), and isolated to obtain neurons (as describedin the prior art: Malin, S. A., Davis, B. M. & Molliver, D. C. Production of dissociated sensory neuron cultures and considerations for their use in studying neuronal function and plasticity. Nat Protoc 2, 152-160 (2007).). The neurons obtained were cultured on a laminin-coated glass slide overnight. TKE2 culture supernatants under different conditions were added to the neurons and cultured for 24 h; after βIII-Tubulin staining, the length of neuron was analyzed and calculated by Neuron J (after the relative length was analyzed by the software, it was calculated with the control as 1.0).

[3] = tested on: diabetic mice; test: Corneal epithelial repair after 2 mm corneal epithelium scraping (sodium fluorescein staining); type: in vivo
[4] = tested on: diabetic mice; test: Expression of NGF and GDNF in corneal epithelium (mRNA detection and immunofluorescence staining); type: in vivo; settings: diabetic mice dropped in eyes with β2-adrenergic receptor antagonist
Source text: mRNA was extracted from the corneal epithelia of the diabetic mice and the diabetic mice treated with β2-adrenergic receptor antagonist; meanwhile, expression levels of NGF and GDNF in epithelial cells were detected according to the example, and expression levels of NGF and GDNF in epithelia of the diabetic mice and the diabetic mice dropped in eyes with β2-adrenergic receptor antagonist were detected by immunofluorescence staining.

[5] = tested on: diabetic mice; test: Corneal sensitivity after corneal epithelium scraping (Cochet-Bonnet aesthesiometer); type: in vivo
[6] = tested on: TKE2 cells; test: Expression of neurotrophic factors NGF and GDNF in TKE2 cells (qPCR and ELISA); type: cell-based, mouse; settings: 24 h
Procedure: TKE2 cells cultured under different conditions were collected for mRNA extraction, and their culture supernatants were collected; after qPCR and ELISA, expression levels of neurotrophic factors NGF and GDNF were obtained, respectively. Herein, primers for the detection of expression of NGF and GDNF by qPCR were as follows: The reaction system was as follows: 2×SYBR: 5 μL; upstream primer: 0.3 μL; downstream primer: 0.3 μL; RNase-free water: 2.4 μL; cDNA: 2 μL; total: 10 μL; The reaction program was as follows: PCR initial denaturation: 95° C. for 2 min; two-step program: 40 cycles of 95° C. for 5 s and 60° C. for 10 s. The ELISA was conducted by ELISA Kit for mouse NGF (USCN Life Science Inc. Wuhan, China) and mouse GDNF(Abcam, ab171178, Shanghai, China).

NCCc1cc(O)c(O)cc1O [6-OHDA, 6-hydroxydopamine]
corneal nerve regeneration ([1]; Example 8: 100 mg/kg intraperitoneally, four consecutive days, 100 mg/kg): promoting effect; also recorded: effectively promoted the corneal nerve regeneration

Cc1ccc(OCC(O)C(C)NC(C)C)c2c1CCC2 (centres unmarked) [ICI 118,551]
reversal of nerve growth inhibition caused by elevated norepinephrine ([2]; TKE2 cells treated with 10 μM NE + 50 μM antagonist for 24 h): better reverse nerve growth inhibition | diabetic corneal epithelial repair ([3]; 10-100 μM eye drops, 5 μL/eye, 4 times/day, two consecutive days, 0, 24, 36, 48 h after modeling): significantly promote the diabetic corneal epithelial repair | diabetic corneal epithelial repair ([3]; Example 8: 100 mg/kg intraperitoneally, four consecutive days, scraped at 7th day, 0, 36, 48 h after modeling): significantly promote the diabetic corneal epithelial repair | expression of NGF and GDNF in corneal epithelium [4]: significantly upregulated the expression of NGF and GDNF | corneal sensitivity ([5]; 10-100 μM eye drops, 5 μL/eye, 4 times/day, two consecutive days): significantly promote | corneal sensitivity ([5]; Example 8: 100 mg/kg intraperitoneally, four consecutive days, scraped at 7th day): recover the sensitivity | corneal nerve regeneration ([1]; diabetic mice treated with β2-adrenergic receptor antagonist eye drops): promoting effect; also recorded: effectively promote corneal nerve regeneration | reversal of downregulated expression of NGF and GDNF caused by NE ([6]; 10 μM NE + 50 μM antagonist): reverse the downregulated expression of NGF and GDNF

NC[C@H](O)c1ccc(O)c(O)c1 [norepinephrine]
nerve growth (length of neuron) ([2]; TKE2 cells treated with 10 μM NE for 24 h): nerve growth inhibition | expression of NGF and GDNF ([6]; 10 μM NE): downregulated expression of NGF and GDNF
